Measured values taken from patent US20260217701A1, “SELECTIVE BET INHIBITORS AND USES THEREOF” (Tay Therapeutics Limited, priority 2022, published 2026).
Where “and” joins values, the source holds several entries; their conditions need not be identical. Identical values can stand only once.

Experiment: Rat PK study #1 (Compound A PO, methylcellulose vs propylene glycol formulation)
Type: in vivo, Lewis rats
Protocol: For the first rat pharmacokinetic study, the pharmacokinetics of Compound A were assessed in male Lewis rats. Compound A was prepared in two different formulations (1% methylcellulose and 20% propylene glycol/20% Vitamin E/60% water) according to Table 3A (see Tables 2A and 2D for formulations). The formulations were made fresh prior to use. Animals were divided into two groups based on the compound formulation (n=3/group). The Compound A solutions were administered to animals orally (PO) and animals were then monitored over a 24 h period.
Blood samples (~0.2 mL) were collected according to a schedule (0.083, 0.25, 0.5, 1, 2, 4, 8, and 24 h following the initial dosing) via the jugular vein by cannulation and EDTA-K2 was used as anticoagulant. Within 30 minutes of collection, the samples were centrifuged at approximately 4000 times g-force for 5 minutes at 4° C. to obtain blood plasma. The plasma samples were immediately divided into two aliquots (~75 μL each), transferred to a cryogenic vial, and stored in a freezer at −75±15° C. prior to analysis.
The concentration of Compound A in plasma samples was determined by liquid chromatography-mass spectrometry (LC-MS/MS) using a Shimadzu HPLC (DGU-20A5R; LC-30AD; SIL-30AC; Rack changer II; CTO-31A; and CBM-20A) and an AB API 5500 LC/MS/MS instrument. Samples were analyzed on an Agilent Poroshell 120 EC-C18 4 μm (50×2.1 mm) column. Solution A in the mobile phase was 95% water (0.1% formic acid) and solution B was 95% acetonitrile in water (0.1% formic acid), injection volume was 3 μL, and flow rate was 0.6 mL/min.
To prepare samples for analysis, serial concentrations were prepared by diluting the stock solution of analyte with a 50% acetonitrile in water solution. 5 μL working solutions (5, 10, 20, 50, 100, 500, 1000, 5000, and 10000 ng/ml) were added to 50 μL of the blank Lewis rat plasma to achieve calibration standards of ~0.5 to 1000 ng/ml (0.5, 1, 2, 5, 10, 50, 100, 500, and 1000 ng/ml) in a total volume of 55 μL. Five quality control samples at 1 ng/ml, 2 ng/ml, 5 ng/mL, 50 ng/mL, and 800 ng/mL for plasma were prepared independently of those used for the calibration curves. These QC samples were prepared on the day of analysis in the same way as calibration standards.
55 μL of standards, 55 μL of QC samples and 55 μL of unknown samples (50 μL of unknown rat plasma with 5 μL of blank solution) were added to 200 μL of acetonitrile containing internal standard (IS; verapamil) mixture for precipitating protein respectively. The samples were then vortexed for 30 s. After centrifugation at 4° C., 3900 rpm for 15 min, the supernatant was diluted 3 times with water. 3 μL of diluted supernatant was injected into the LC/MS/MS system for quantitative analysis.

[1] = Lewis rats, PO 10 mg/kg, 1% methylcellulose formulation, individual animals, 10 mg/kg
[2] = Lewis rats, PO 10 mg/kg, 1% methylcellulose formulation, mean of 3 animals
[3] = Lewis rats, PO 10 mg/kg, propylene glycol/Vitamin E TPGS/water formulation, individual animals, 10 mg/kg
[4] = Lewis rats, PO 10 mg/kg, propylene glycol/Vitamin E TPGS/water formulation, mean of 3 animals

For `Cn1cc(-c2ccccc2)c(-c2cn(C)c(=O)c3[nH]c(-c4cnn(C(F)(F)F)c4)cc23)cc1=O` [Compound A, 6-methyl-4-(1-methyl-2-oxo-5-phenyl-1,2-dihydropyridin-4-yl)-2-(1-(trifluoromethyl)-1H-pyrazol-4-yl)-1,6-dihydro-7H-pyrrolo[2,3-c]pyridin-7-one], the “Plasma Concentration” value (Lewis rats, PO 10 mg/kg, 1% methylcellulose formulation, 0.083 h, individual animals) was 0.00 ng/mL, the “Plasma Concentration” value (Lewis rats, PO 10 mg/kg, 1% methylcellulose formulation, 0.083 h, mean of 3 animals) was “BLOQ” and the “Plasma Concentration” value (Lewis rats, PO 10 mg/kg, 1% methylcellulose formulation, 0.25 h, individual animals, 10 mg/kg) was 1.37 ng/mL and 0.868 ng/mL and 0.603 ng/mL. For the same compound, the “Plasma Concentration” value (Lewis rats, PO 10 mg/kg, 1% methylcellulose formulation, 0.5 h, individual animals, 10 mg/kg) was 9.07 ng/mL and 4.15 ng/mL and 2.89 ng/mL, the “Plasma Concentration” value (Lewis rats, PO 10 mg/kg, 1% methylcellulose formulation, 1 h, individual animals, 10 mg/kg) was 10.7 ng/mL and 12.2 ng/mL and the “Plasma Concentration” value (Lewis rats, PO 10 mg/kg, 1% methylcellulose formulation, 2 h, individual animals, 10 mg/kg) was 21.6 ng/mL and 22.7 ng/mL. For the same compound, the “Plasma Concentration” value (Lewis rats, PO 10 mg/kg, 1% methylcellulose formulation, 4 h, individual animals, 10 mg/kg) was 49.2 ng/mL and 43.1 ng/mL, the “Plasma Concentration” value (Lewis rats, PO 10 mg/kg, 1% methylcellulose formulation, 8 h, individual animals, 10 mg/kg) was 29.3 ng/mL and 67.3 ng/mL and 50.6 ng/mL and the “Plasma Concentration” value (Lewis rats, PO 10 mg/kg, 1% methylcellulose formulation, 24 h, individual animals, 10 mg/kg) was 0.996 ng/mL and 1.52 ng/mL and 5.80 ng/mL. For the same compound, the AUClast [1] was 875 ng·h/mL and 726 ng·h/mL, the AUClast/D [1] was 48.0 mg·h/mL and 87.5 mg·h/mL and 72.6 mg·h/mL and the Cmax [1] was 67.3 ng/mL and 50.6 ng/mL. The F [1] was 2.51% and 4.57% and 3.79%, the AUClast/D [2] was 69.4 mg·h/mL and the F [2] was 3.62%. The “Plasma Concentration” value (Lewis rats, PO 10 mg/kg, propylene glycol/Vitamin E TPGS/water formulation, 0.083 h, individual animals, 10 mg/kg) was 3.72 ng/mL and 4.36 ng/mL, the “Plasma Concentration” value (Lewis rats, PO 10 mg/kg, propylene glycol/Vitamin E TPGS/water formulation, 0.25 h, individual animals, 10 mg/kg) was 39.8 ng/mL and 47.2 ng/mL and the “Plasma Concentration” value (Lewis rats, PO 10 mg/kg, propylene glycol/Vitamin E TPGS/water formulation, 0.5 h, individual animals, 10 mg/kg) was 134 ng/mL. For the same compound, the “Plasma Concentration” value (Lewis rats, PO 10 mg/kg, propylene glycol/Vitamin E TPGS/water formulation, 1 h, individual animals, 10 mg/kg) was 264 ng/mL and 263 ng/mL, the “Plasma Concentration” value (Lewis rats, PO 10 mg/kg, propylene glycol/Vitamin E TPGS/water formulation, 2 h, individual animals, 10 mg/kg) was 375 ng/mL and 424 ng/mL and the “Plasma Concentration” value (Lewis rats, PO 10 mg/kg, propylene glycol/Vitamin E TPGS/water formulation, 4 h, individual animals, 10 mg/kg) was 316 ng/mL and 437 ng/mL. For the same compound, the “Plasma Concentration” value (Lewis rats, PO 10 mg/kg, propylene glycol/Vitamin E TPGS/water formulation, 8 h, individual animals, 10 mg/kg) was 156 ng/mL and 145 ng/mL, the “Plasma Concentration” value (Lewis rats, PO 10 mg/kg, propylene glycol/Vitamin E TPGS/water formulation, 24 h, individual animals, 10 mg/kg) was 12.6 ng/mL and 12.5 ng/mL and the AUC_%Extrap_obs (Lewis rats, PO 10 mg/kg, propylene glycol/Vitamin E TPGS/water formulation, individual animals) was 2.25%. For the same compound, the AUClast [3] was 3428 ng·h/mL and 3755 ng·h/mL, the Cmax [3] was 375 ng/mL and 437 ng/mL and the F [3] was 25.8% and 17.1% and 19.6%. The AUClast/D [4] was 404, the F [4] was 20.8% and the Clinical observations (both formulations, PO, 24 h) was “no recorded clinical observations”. The “plasma concentration, propylene glycol-based vs methylcellulose-based formulation” value (male Lewis rats, PO, same dose) was “approximately 10 fold”, the concentration at 0.083 h (male, Lewis, rat, plasma, po, 10 mg/kg, Lewis rats, PO 10 mg/kg, 1% methylcellulose formulation, 0.083 h, individual animals) was 0 ng/mL and the concentration at 0.25 h (male, Lewis, rat, plasma, po, 10 mg/kg, Lewis rats, PO 10 mg/kg, 1% methylcellulose formulation, 0.25 h, mean of 3 animals) was 0.95 ng/mL. It also gave a concentration at 0.5 h (male, Lewis, rat, plasma, po, 10 mg/kg, Lewis rats, PO 10 mg/kg, 1% methylcellulose formulation, 0.5 h, mean of 3 animals) of 5.37 ng/mL, a concentration at 1 h (male, Lewis, rat, plasma, po, 10 mg/kg, Lewis rats, PO 10 mg/kg, 1% methylcellulose formulation, 1 h, individual animals) of 17.1 ng/mL and a concentration at 1 h (male, Lewis, rat, plasma, po, 10 mg/kg, Lewis rats, PO 10 mg/kg, 1% methylcellulose formulation, 1 h, mean of 3 animals) of 13.3 ng/mL.
